Test results from patent publication US12595252B2, “Inhibitors of SARM1” (DISARM THERAPEUTICS, INC., priority 2019, dated 2026).
Like-named read-outs stand apart in the source and are kept apart here.

Target: T1, SARM1 (Homo sapiens, UniProt Q6SZW1)
T1 construct: made in house; host or cells: NRK1-HEK293T cells, transiently transfected; clarified lysate used unpurified
T1 sequence (Q6SZW1 with tags, fused parts or gaps): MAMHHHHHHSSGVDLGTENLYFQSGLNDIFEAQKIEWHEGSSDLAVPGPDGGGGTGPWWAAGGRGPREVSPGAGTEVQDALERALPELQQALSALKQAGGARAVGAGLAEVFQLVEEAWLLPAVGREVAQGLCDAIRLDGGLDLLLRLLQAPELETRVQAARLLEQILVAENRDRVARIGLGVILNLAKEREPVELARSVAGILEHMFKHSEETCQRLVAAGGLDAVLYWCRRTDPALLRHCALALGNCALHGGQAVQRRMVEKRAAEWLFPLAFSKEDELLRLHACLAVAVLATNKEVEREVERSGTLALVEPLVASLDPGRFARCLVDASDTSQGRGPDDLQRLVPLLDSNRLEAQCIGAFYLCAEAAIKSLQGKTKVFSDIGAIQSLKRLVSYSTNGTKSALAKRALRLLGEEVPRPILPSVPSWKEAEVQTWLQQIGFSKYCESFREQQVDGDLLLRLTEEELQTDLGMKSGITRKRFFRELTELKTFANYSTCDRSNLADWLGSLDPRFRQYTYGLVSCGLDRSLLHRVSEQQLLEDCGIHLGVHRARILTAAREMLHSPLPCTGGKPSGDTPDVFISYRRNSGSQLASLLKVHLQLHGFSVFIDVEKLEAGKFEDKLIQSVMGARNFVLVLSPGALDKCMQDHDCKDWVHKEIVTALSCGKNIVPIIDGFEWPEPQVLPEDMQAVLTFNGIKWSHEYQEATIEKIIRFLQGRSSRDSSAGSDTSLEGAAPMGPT
Test: ARM-SAM-TIR SARM1 IC50 assay (NADase activity, NAD+ cleavage)
Type: biochemical
Method: This Example describes an assay of ARM-SAM-TIR NADase activity and use of this assay to measure the efficacy of compounds of Formula I to block SARM1 mediated NAD+ cleavage. This assay is optimized in such a way as to characterize the efficacy of the compounds in Formula I to inhibit SARM1 activity and to calculate an IC50 value for each compound. This assay makes use of full length SARM1, which encompasses the ARM, SAM and TIR domains.
NRK1-HEK293T cells were seeded onto 150 cm^2 plates at 20×10^6 cells per plate. The next day, the cells were transfected with 15 μg ARM-SAM-TIR expression plasmid, SEQ ID NO: 1.
The cultures were supplemented with 1 mM NR at time of transfection to minimize toxicity from ARM-SAM-TIR overexpression. Forty-eight hours after transfection, cells were harvested, pelleted by centrifugation at 1,000 rpm (Sorvall ST 16R centrifuge, Thermo Fisher), and washed once with cold PBS (0.01 M phosphate buffered saline NaCl 0.138 M; KCl 0.0027 M; pH 7.4). The cells were resuspended in PBS with protease inhibitors (cOmplete™ protease inhibitor cocktail, Roche product #11873580001) and cell lysates were prepared by sonication (Branson Sonifer 450, output=3, 20 episodes of stroke). The lysates were centrifuged (12,000×g for 10 min at 4° C.) to remove cell debris and the supernatants (containing ARM-SAM-TIR protein) were stored at −80° C. for later use in the in vitro ARM-SAM-TIR NADase assay (see below). Protein concentration was determined by the Bicinchoninic (BCA) method and used to normalize lysate concentrations.
The enzymatic assay was performed in a 384-well polypropylene plate in Dulbecco's PBS buffer in a final assay volume of 20 μL. ARM-SAM-TIR lysate with a final concentration of 5 μg/mL was pre-incubated with the respective compound at 1% DMSO final assay concentration over 2 h at room temperature. The reaction was initiated by addition of 5 μM final assay concentration of NAD+ as substrate. After a 2 hr room temperature incubation, the reaction was terminated with 40 μL of stop solution of 7.5% trichloroacetic acid in acetonitrile. The NAD+ and ADPR concentrations were analyzed by a RapidFire High Throughput Mass Spectrometry System (Agilent Technologies, Santa Clara, Calif.) using an API4000 triple quadrupole mass spectrometer (AB Sciex Framingham, Mass.).

[1] = ARM-SAM-TIR lysate 5 μg/mL from NRK1-HEK293T cells, 2 h pre-incubation, 5 μM NAD+, 2 hr room temperature, NAD+ and ADPR by RapidFire MS, read-out: SARM1 IC50

| SMILES | IC50 [1] | IC50 |
| --- | --- | --- |
| Cn1cc(CNc2cncc(OCC(F)(F)F)n2)cn1 [Example 117] | > 30 µM | – |
| COc1cncc(NCc2ccc(N)nc2)n1 [Example 118] | < 5 µM | – |
| COc1cncc(NCc2cnn(C3CCN(C)CC3)c2)n1 [Example 119] | < 5 µM | – |
| CCN1CCC(n2cc(CNc3cncc(OC)n3)cn2)CC1 [Example 120] | < 5 µM | – |
| COc1cncc(NCc2cnc(C)o2)n1 [Example 121] | 5 to 15 µM | – |
| CCN1CCN(c2ncc(CNc3cncc(OC)n3)cn2)C(C)C1 (stereo not drawn) [Example 122] | 5 to 15 µM | – |
| COc1cncc(NCc2cccc(N3CCN(C(=O)OC(C)(C)C)CC3)c2)n1 [Example 123] | 5 to 15 µM | – |
| COc1cncc(NCc2ccc(C3=CCN(C)CC3)nc2)n1 [Example 124] | – | 5 to 15 µM |
| COc1cncc(NCc2ccc(C3CCN(C)CC3)nc2)n1 [Example 125] | 5 to 15 µM | – |
| COc1cncc(NCc2cccc(N3CCNCC3)c2)n1 [Example 126] | 5 to 15 µM | – |
| COc1cncc(NCc2cccc(S(C)(=O)=O)c2)n1 [Example 127] | 15 to 30 µM | – |
| COc1cncc(NCc2cccc(C#N)c2)n1 [Example 128] | 5 to 15 µM | – |
| COc1cncc(NCc2ccc(C#N)cc2)n1 [Example 129] | 5 to 15 µM | – |
| COc1cncc(NCc2ccc(N3CCC(F)(F)CC3)nc2)n1 [Example 130] | 5 to 15 µM | – |
| COc1cncc(NCc2ccc(N3CCN4CCCC4C3)nc2)n1 (stereo not drawn) [Example 131] | < 5 µM | – |
| COc1cncc(NCc2ccc(N3CCN(C(=O)OC(C)(C)C)CC3)nc2)n1 [Example 132] | 5 to 15 µM | – |
| COc1cncc(NCc2ccc(NS(C)(=O)=O)nc2)n1 [Example 133] | 5 to 15 µM | – |
| COc1cncc(NCc2cnn(C3CCN(C(C)=O)CC3)c2)n1 [Example 134] | 15 to 30 µM | – |
| COc1cnnc(NCc2cn[nH]c2)c1 [Example 135] | 15 to 30 µM | – |
| COc1cc(NC(=O)c2cccnc2)cnn1 [Example 136] | 5 to 15 µM | – |
| COc1cc(NC(=O)c2cnccn2)cnn1 [Example 137] | > 30 µM | – |

| SMILES | IC50 [1] | IC50 |
| --- | --- | --- |
| CCc1cncc(NCc2cccnc2)n1 [Example 138] | 15 to 30 µM | – |
| CNC(=O)c1cncc(NCc2cccnc2)n1 [Example 139] | 5 to 15 µM | – |
| COc1cc(NCc2cccnc2)n[nH]c1=O [Example 140] | 15 to 30 µM | – |
| COc1cncc(NCc2ccc(-c3ccncc3)nc2)n1 [Example 141] | 5 to 15 µM | – |
| COc1cncc(NCc2ccc(-c3ccccc3)nc2)n1 [Example 142] | 5 to 15 µM | – |
| COc1cncc(NCc2ccc(OC(F)(F)F)cc2)n1 [Example 143] | 5 to 15 µM | – |
| COc1cncc(NCc2ccc(C(C)(C)O)cc2)n1 [Example 144] | 5 to 15 µM | – |
| COc1cncc(NCc2cccnc2O)n1 [Example 145] | > 30 µM | – |
| COc1cncc(NCc2ccc(-c3nnco3)cc2)n1 [Example 146] | 5 to 15 µM | – |
| COc1cncc(NCc2ccc(N3CCN(C(C)C)CC3)nc2)n1 [Example 147] | 5 to 15 µM | – |
| CCCCN1CCN(c2ccc(CNc3cncc(OC)n3)cn2)CC1 [Example 148] | 5 to 15 µM | – |
| CCNC(=O)n1cc(CNc2cncc(OC)n2)cn1 [Example 149] | 5 to 15 µM | – |
| COc1cncc(NCc2cnn(S(C)(=O)=O)c2)n1 [Example 150] | 5 to 15 µM | – |
| Cn1cc(CNc2cncc(NCCCCO)n2)cn1 [Example 151] | 5 to 15 µM | – |
| CNc1cncc(OC)n1 [Example 152] | < 5 µM | – |
| COc1cc(NCc2cccnc2)cc(=O)[nH]1 [Example 153] | > 30 µM | – |
| N#Cc1cncc(NCc2cccnc2)n1 [Example 154] | > 30 µM | – |
| CCN1CCN(c2cccc(CNc3cncc(OC)n3)c2)CC1 [Example 155] | 5 to 15 µM | – |
| COc1cncc(NCc2ccc(S(=O)(=O)N(C)C)cc2)n1 [Example 156] | 15 to 30 µM | – |
| COc1cncc(NCc2ccn(C)c(=O)c2)n1 [Example 157] | 15 to 30 µM | – |
| COc1cncc(NCc2ccc(-c3nn[nH]n3)cc2)n1 [Example 158] | 15 to 30 µM | – |

| SMILES | IC50 [1] | IC50 |
| --- | --- | --- |
| COc1cncc(N)n1 [Example 159] | 15 to 30 µM | – |
| COc1cncc(N)c1 [Example 160] | 15 to 30 µM | – |
| CNc1cc(OC)cnn1 [Example 161] | > 30 µM | – |
| CNc1nccc(OC)n1 [Example 162] | > 30 µM | – |
| CNc1cncc(OCc2ccccc2)n1 [Example 163] | 5 to 15 µM | – |
| CNC(=O)c1cncc(NC)n1 [Example 164] | > 30 µM | – |
| CNc1cncc(NCCCCO)n1 [Example 166] | 15 to 30 µM | – |
| CNc1cncc(NCCc2cnn(C)c2)n1 [Example 167] | 15 to 30 µM | – |
| CNc1cncc(OCCCNC(=O)OC(C)(C)C)n1 [Example 168] | > 30 µM | – |
| CNc1cncc(OCCCCNC(=O)OC(C)(C)C)n1 [Example 169] | > 30 µM | – |
| CCCOc1cncc(NCc2cnn(C)c2)n1 [Example 170] | > 30 µM | – |
| CNc1cncc(OC)c1 [Example 171] | 5 to 15 µM | – |
| CNc1cncc(OCCCN)n1 [Example 172] | > 30 µM | – |
| CNc1cncc(OCCCCN)n1 [Example 173] | > 30 µM | – |
| CNc1cncc(OCCCCO)n1 [Example 174] | < 5 µM | – |
| COc1cc(NCc2ccc(S(N)(=O)=O)cc2)cnn1 [Example 175] | > 30 µM | – |
| COc1cc(NCc2cc[nH]c(=O)c2)cnn1 [Example 176] | > 30 µM | – |
| Cn1cc(CNc2cncc(OCCC3CCCO3)n2)cn1 (stereo not drawn) [Example 177] | > 30 µM | – |
| CCN1CCN(c2ccc(CNc3cnccn3)cn2)CC1 [Example 178] | > 30 µM | – |
| CCN1CCN(c2ccc(CNc3cnccn3)cc2)CC1 [Example 182] | > 30 µM | – |
| CCOc1cncc(NCc2cnccn2)n1 [Example 183] | > 30 µM | – |

| SMILES | IC50 [1] | IC50 |
| --- | --- | --- |
| CCOc1cncc(NC(C)c2ccccn2)n1 (stereo not drawn) [Example 184] | > 30 µM | – |
| CCOc1cncc(NCc2ccccn2)n1 [Example 185] | > 30 µM | – |
| Brc1cncc(NCc2cccnc2)n1 [Example 186] | > 30 µM | – |
| Clc1cncc(NCc2cccnc2)n1 [Example 187] | > 30 µM | – |
| Brc1cncc(OCc2cccnc2)n1 [Example 188] | > 30 µM | – |
| Clc1cncc(OCc2cccnc2)n1 [Example 189] | > 30 µM | – |
| CCOc1cncc(OCc2cccnc2)n1 [Example 190] | > 30 µM | – |
| CCOc1cncc(NC(=O)c2cccnc2)n1 [Example 191] | > 30 µM | – |
| CCOc1cncc(NC(=O)c2ccccc2)n1 [Example 192] | > 30 µM | – |
| CCOc1cncc(NC(C)=O)n1 [Example 193] | > 30 µM | – |
| CCOc1cncc(NS(C)(=O)=O)n1 [Example 195] | > 30 µM | – |
| COc1cncc(C(=O)NCc2ccccc2)n1 [Example 196] | > 30 µM | – |
| COc1cncc(C(=O)Nc2ccccc2)n1 [Example 197] | > 30 µM | – |
| c1ccc(COc2cncc(NCc3cccnc3)n2)cc1 [Example 198] | > 30 µM | – |
| c1cncc(CNc2cncc(OCC3CCCC3)n2)c1 [Example 199] | > 30 µM | – |
| CCCc1cncc(NCc2cccnc2)n1 [Example 200] | > 30 µM | – |
| Cc1ncc(Cl)nc1NCc1cccnc1 [Example 201] | > 30 µM | – |
| COc1cncc(N(C)Cc2cccnc2)n1 [Example 202] | > 30 µM | – |
| COc1cnc(NCc2cccnc2)cn1 [Example 203] | > 30 µM | – |
| COc1cnc(C)c(NCc2cccnc2)n1 [Example 204] | > 30 µM | – |
| COc1cncc(NCc2cn(C)nc2C)n1 [Example 206] | > 30 µM | – |
